Measured values as given in patent publication US20050085554A1, “Methods of treating disease through the administration of a manzamine analog or derivative” (priority 2003, published 2005).
≈ marks a conversion by molar mass, not a printed value. Read-outs that look alike come from different tables or passages of the source.

Legend:
[1] = system: Plasmodium falciparum (D6 clone); test: Antimalarial activity in vitro, D6 clone; format: cell-based; conditions: for IC50: Plasmodium falciparum, D6
[2] = system: P. falciparum (chlorine-resistant W2 clone); test: Antimalarial activity in vitro, W2 clone; format: cell-based, Plasmodium falciparum; conditions: for IC50: Plasmodium falciparum
[3] = system: Staphylococcus aureus; test: Antibacterial activity against S. aureus; format: cell-based; conditions: for IC50: Staphylococcus aureus
[4] = system: methicillin-resistant Staphylococcus aureus; test: Antibacterial activity against MRS; format: cell-based
[5] = system: Mycobacterium intracellulare; test: Activity against M. intracellulare; format: cell-based
[6] = system: Mycobacterium tuberculosis H37Rv; test: In vitro antimycobacterial activity (Microplate Alamar Blue Assay), MIC; format: cell-based; conditions: for MIC: Mycobacterium tuberculosis, H37RV
[7] = system: HIV-1LAV; test: Anti-HIV-1 activity in PBM cells; format: cell-based, human immunodeficiency virus (HIV-1); conditions: T5
Description: Anti-HIV-1 activity was determined in PBM cells as described previously. See, Stock solutions (20 or 40 mM) of the compounds were prepared in sterile DMSO and then diluted to the desired concentration in growth medium. Cells were infected with the prototype HIV-1LAV at a multiplicity of infection of 0.1. Details on the infection of cells and assessment of antiviral effects was described previously. See, Schinazi, R. F.; McMillan, A.; Cannon, D.; Mathis, R.; Lloyd, R. M.; Peck, A.; Sommadossi, J.-P.; Clair, M. S.; Wilson, J.; Furman, P. A.; Painter G.; Choi, W.-B.; Liotta, D. C. Antimicrob. Agents Chemother. 1992, 36, 2423-2431 and Schinazi, R. F.; Sommadossi, J.-P.; Saalmann, V.; Cannon, D. L.; Xie, M.-Y.; Hart, G. C.; Smith, G. A.; Hahn, E. F. Antimicrob. Agents Chemother. 1990, 34, 1061-1067.

[8] = system: Leishmania donovani; test: Antileishmanial activity in vitro; format: cell-based; conditions: T4
[9] = system: Cryptococcus neoformans; test: Antifungal activity against Cryptococcus neoformans; format: cell-based; conditions: T5, NA = not active
[10] = T4, NA = not active, read-out: Plasmodium falciparum (D6 clone) IC 50
[11] = W2, read-out: P. falciparum (chlorine-resistant W2 clone) IC 50
[12] = Mycobacterium intracellulare, T5, NA = not active, read-out: IC50 M. intracellulare
[13] = T4, read-out: Mycobacterium Tuberculosis (H37Rv) MIC

SMILES	Mycobacterium Tuberculosis (H37Rv) MIC ([6]; T4)	EC50 [7]	IC50 M. intracellulare ([5]; T5, NA = not active)	Plasmodium falciparum (D6 clone) IC 50 ([1]; T4, NA = not active)	P. falciparum (chlorine-resistant W2 clone) IC 50 ([2]; T4, NA = not active)	Leishmania donovani IC 50 [8]	Leishmania donovani IC 90 [8]	further results
C[C@@H]1CC[C@H]2[C@@H](C)C(=O)O[C@@H]3O[C@@]4(C)CC[C@@H]1[C@]32OO4 [Artemisinin, reference compound]	–	–	–	–	–	–	–	IC50 [1, 10]: 0.01 µg/mL (≈ 0.0354 µM); IC50 ([2]; W2, T4, NA = not active, read-out: P. falciparum (chlorine-resistant W2 clone) IC 50): 0.0063 µg/mL (≈ 0.0223 µM)
CCN(CC)CCCC(C)Nc1ccnc2cc(Cl)ccc12 (stereo not shown) [Chloroquine, reference compound]	–	–	–	–	–	–	–	IC50 [1, 10]: 0.0155 µg/mL (≈ 0.0485 µM); IC50 ([1]; T6): 0.01 µg/mL (≈ 0.0313 µM); IC50 [2, 11]: 0.17 µg/mL (≈ 0.531 µM); IC50 ([2]; W2, T6, read-out: P. falciparum (W2 clone) IC50): 0.14 µg/mL (≈ 0.438 µM)
O=C(O)c1cn(C2CC2)c2cc(N3CCNCC3)c(F)cc2c1=O [Ciprofloxacin, reference compound]	–	–	–	–	–	–	–	IC50 ([3]; T5, NA = not active, read-out: Antibacterial IC50 S. aureus): 0.1 µg/mL (≈ 0.302 µM); IC50 ([3]; T6, read-out: Staphylococcus aureus IC50): 0.1 µg/mL (≈ 0.302 µM); IC50 ([4]; Staphylococcus aureus, T5, NA = not active, read-out: Antibacterial IC50 MRS): 0.1 µg/mL (≈ 0.302 µM); MIC ([4]; Staphylococcus aureus, T6): 0.31 µg/mL (≈ 0.936 µM); IC50 ([4]; T6, MRS: methicillin-resistant Staphylococcus aureus, read-out: MRS IC50): 0.1 µg/mL (≈ 0.302 µM); IC50 [5, 12]: 0.25 µg/mL (≈ 0.754 µM); MIC ([5]; Mycobacterium intracellulare, T6): 0.63 µg/mL (≈ 1.9 µM); IC50 ([5]; Mycobacterium intracellulare, T6, read-out: Mycobacterium intracellulare IC50): 0.25 µg/mL (≈ 0.754 µM)
O=CC1=C[C@@]2(O)CC/C=C\CCCCN3CC[C@@H]1[C@]1(CC4/C=C\CCCCN4[C@H]12)C3 (stereo partly shown) [Ircinal A]	30.2 µg/mL	6.8 µM	50 µg/mL (≈ 122 µM)	–	–	–	–	–
OCC1=C[C@]2(O)CC/C=C\CCCCN3CC[C@@H]1[C@@]1(C[C@H]4/C=C\CCCCN4[C@@H]12)C3 [Ircinol A]	1.93 µg/mL	4.3 µM	50 µg/mL (≈ 121 µM)	2.4 µg/mL	3.1 µg/mL	–	–	Antibacterial IC50 MRS ([4]; T5, NA = not active): 30 µg/mL
O=C1CCCN2[C@@H](CC1)C[C@]13CN4CCCC/C=C\CC[C@](O)(C=C(c5nccc6c5[nH]c5ccccc56)[C@@H]1CC4)[C@H]23 [Manzamine E]	3.76 µg/mL	13.1 µM	12.5 µg/mL (≈ 22.1 µM)	3.4 µg/mL	4.76 µg/mL	3.8 µg/mL	6.8 µg/mL	–
O=C1CCCN2[C@@H](CC1)C[C@]13CN4CCCC/C=C\CC[C@](O)(C=C(c5nccc6c5[nH]c5c(O)cccc56)C1CC4)[C@H]23 (stereo partly shown) [Manzamine F]	2.56 µg/mL	7.3 µM	6.25 µg/mL (≈ 10.8 µM)	0.78 µg/mL	1.7 µg/mL	4.2 µg/mL	7 µg/mL	Antifungal IC50 C. neoformans [9]: 6.5 µg/mL; Plasmodium falciparum (D6 clone) IC 50 ([1]; T8, NA not defined): 0.78 µg/mL; P. falciparum (chlorine-resistant W2 clone) IC 50 ([2]; T8): 1.7 µg/mL
O[C@]12C=C(c3nccc4c3[nH]c3ccccc34)[C@@H]3CCN(CCCC/C=C\CC1)C[C@@]31CC/C=C\CCCCN[C@H]12 [Manzamine J]	1.7 µg/mL	–	–	1.3 µg/mL	0.75 µg/mL	25 µg/mL	45 µg/mL	–
Oc1ccc2[nH]c3c(C4=C[C@@]5(O)CC/C=C\CCCCN6CC[C@@H]4[C@@]4(C6)C[C@@]67CC[C@@H](CCCN6[C@H]45)O7)nccc3c2c1 [Manzamine X]	–	2.3 µM	1.5 µg/mL (≈ 2.58 µM)	0.95 µg/mL	2 µg/mL	5.7 µg/mL	11 µg/mL	Antifungal IC50 C. neoformans [9]: 3.0 µg/mL; Antibacterial IC50 S. aureus ([3]; T5, NA = not active): 1.0 µg/mL; Antibacterial IC50 MRS ([4]; T5, NA = not active): 0.75 µg/mL
N=C(N)c1ccc(OCCCCCOc2ccc(C(=N)N)cc2)cc1 [Pentamidine, reference compound]	–	–	–	–	–	–	–	IC50 ([8]; Leishmania donovani, read-out: Leishmania donovani IC 50): 2.1 µg/mL (≈ 6.17 µM); IC90 ([8]; Leishmania donovani, read-out: Leishmania donovani IC 90): 10 µg/mL (≈ 29.4 µM)
CO[C@H]1/C=C/O[C@@]2(C)Oc3c(C)c(O)c4c(O)c(c(/C=N/N5CCN(C)CC5)c(O)c4c3C2=O)NC(=O)/C(C)=C\C=C\[C@H](C)[C@H](O)[C@@H](C)[C@@H](O)[C@@H](C)[C@H](OC(C)=O)[C@@H]1C [Rifampin, reference compound]	–	–	–	–	–	–	–	MIC [6, 13]: 0.5 µg/mL (≈ 0.608 µM); MIC ([6]; T6, read-out: Mycobacterium tuberculosis MIC): 0.24 µg/mL (≈ 0.292 µM); MIC ([6]; rifampin = positive control, read-out: MIC against Mycobacterium tuberculosis (Mtb)): 0.16 µg/mL (≈ 0.194 µM)
O[C@@H]1CCCN2CC[C@@H]1O[C@@]13CC[C@@H](OC[C@]45CN6CCCC/C=C\CC[C@](O)(C=C(c7nccc8c7[nH]c7ccccc78)[C@@H]4CC6)[C@H]25)[C@@H](O)CCN1[C@@H]1[C@]2(CN4CCCC/C=C\CC[C@]1(O)C=C(c1nccc5c1[nH]c1ccccc15)[C@@H]2CC4)C3 [neo-Kauluamine]	–	–	–	–	–	–	–	MIC [6, 13]: 2 µg/mL (≈ 1.72 µM); IC50 ([9]; Cryptococcus neoformans, read-out: Antifungal IC50 C. neoformans): 3 µg/mL (≈ 2.58 µM); IC50 [1, 10]: 1.7 µg/mL (≈ 1.46 µM); IC50 [2, 11]: 2.8 µg/mL (≈ 2.41 µM); IC50 [5, 12]: 3 µg/mL (≈ 2.58 µM)
